Legend:
[1] = human gut metagenome, 24 h, 2 µM
[2] = human gut metagenome, 24 h, 2 µM; remark: listed apart in the source
[3] = human gut metagenome, 24 h, 2 µM; remark: listed apart in the source
[4] = human gut metagenome, 24 h, 2 µM; remark: listed apart in the source
[5] = human gut metagenome, 24 h, 2 µM; remark: listed apart in the source
[6] = human gut metagenome, 24 h, 2 µM; remark: listed apart in the source
[7] = human gut metagenome, 24 h, 2 µM; remark: listed apart in the source
[8] = (§1) The drug is tested on WLS-027 corresponding to human gut metagenome with ENA study accession number: PRJEB37062 and ENA sample accession number: ERS12561744 for biotransformation under anaerobic condition. The drug concentrations were measured over 9 timepoints collected between 0 and 24 hours of incubation by liquid-chromatography-coupled mass spectrometry (LC–MS); details: 2 µM
[9] = human gut metagenome, 24 h, 2 µM; remark: listed apart in the source
[10] = human gut metagenome, 24 h, 2 µM; remark: listed apart in the source
[11] = as §1, with “WLS-073” for “WLS-027”, “ERS12561749” for “ERS12561744”; details: 2 µM
[12] = as §1, with “WLS-350” for “WLS-027”, “ERS12561789” for “ERS12561744”; details: 2 µM
[13] = as §1, with “WLS-052” for “WLS-027”, “ERS12561747” for “ERS12561744”; details: 2 µM
[14] = human gut metagenome, 24 h, 2 µM; remark: listed apart in the source
[15] = as §1, with “WLS-370” for “WLS-027”, “ERS12561793” for “ERS12561744”; details: 2 µM
[16] = as §1, with “Z-006” for “WLS-027”, “mouse” for “human”, “ERS12561806” for “ERS12561744”; details: 2 µM
[17] = as §1, with “Z-021” for “WLS-027”, “to” for “to human gut”, “ERS12561820” for “ERS12561744”; details: 2 µM
[18] = as §1, with “Z-007” for “WLS-027”, “rat” for “human”, “ERS12561807” for “ERS12561744”; details: 2 µM
[19] = as §1, with “Z-013” for “WLS-027”, “rabbit” for “human”, “ERS12561813” for “ERS12561744”; details: 2 µM
[20] = as §1, with “Z-022” for “WLS-027”, “mouse” for “human”, “ERS12561821” for “ERS12561744”; details: 2 µM
Further: call rule not given here.

| SMILES | Bacterial Biotransformation [1] | Bacterial Biotransformation [2] | Bacterial Biotransformation [3] | Bacterial Biotransformation [4] | Bacterial Biotransformation [5] | Bacterial Biotransformation [6] | Bacterial Biotransformation [7] | Bacterial Biotransformation [8] | Bacterial Biotransformation [9] | Bacterial Biotransformation [10] | Bacterial Biotransformation [11] | Bacterial Biotransformation [12] | Bacterial Biotransformation [13] | Bacterial Biotransformation [14] | Bacterial Biotransformation [15] | Bacterial Biotransformation [16] | Bacterial Biotransformation [17] | Bacterial Biotransformation [18] | Bacterial Biotransformation [19] | Bacterial Biotransformation [20] |
| --- | --- | --- | --- | --- | --- | --- | --- | --- | --- | --- | --- | --- | --- | --- | --- | --- | --- | --- | --- | --- |
| N#Cc1ccc2c(c1)N(CCCN1CCC(O)CC1)c1ccccc1S2 [PERICIAZINE] | Compound NOT metabolized | Compound metabolized | Compound NOT metabolized | Compound NOT metabolized | Compound NOT metabolized | Compound NOT metabolized | Compound NOT metabolized | Compound metabolized | Compound metabolized | Compound metabolized | Compound NOT metabolized | Compound NOT metabolized | Compound metabolized | Compound NOT metabolized | Compound NOT metabolized |  |  |  |  |  |
| N[C@@H](Cc1ccc(N(CCCl)CCCl)cc1)C(=O)O | Compound NOT metabolized |  | Compound metabolized | Compound metabolized |  | Compound metabolized | Compound NOT metabolized | Compound metabolized | Compound NOT metabolized |  | Compound metabolized | Compound NOT metabolized | Compound metabolized | Compound metabolized | Compound NOT metabolized |  |  |  |  |  |
| COCCCC/C(=N\OCCN)c1ccc(C(F)(F)F)cc1.O=C(O)/C=C\C(=O)O [FLUVOXAMINE MALEATE] | Compound NOT metabolized | Compound NOT metabolized | Compound NOT metabolized | Compound NOT metabolized | Compound NOT metabolized | Compound metabolized | Compound NOT metabolized | Compound NOT metabolized | Compound NOT metabolized | Compound metabolized | Compound NOT metabolized | Compound NOT metabolized | Compound NOT metabolized | Compound NOT metabolized | Compound metabolized |  |  |  |  |  |
| CCOC(=O)C1=C(C)NC(C)=C(C(=O)OC)C1c1cccc([N+](=O)[O-])c1 (configuration not stated) [NITRENDIPINE] | Compound metabolized | Compound metabolized | Compound metabolized | Compound metabolized | Compound metabolized | Compound metabolized | Compound metabolized | Compound metabolized | Compound metabolized | Compound metabolized | Compound metabolized | Compound metabolized | Compound metabolized | Compound metabolized | Compound metabolized |  |  |  |  |  |
| CC#CCn1c(N2CCC[C@@H](N)C2)nc2c1c(=O)n(Cc1nc(C)c3ccccc3n1)c(=O)n2C [LINAGLIPTIN] | Compound NOT metabolized | Compound NOT metabolized | Compound NOT metabolized | Compound NOT metabolized | Compound NOT metabolized | Compound NOT metabolized | Compound NOT metabolized |  | Compound NOT metabolized |  | Compound metabolized | Compound NOT metabolized |  | Compound NOT metabolized | Compound NOT metabolized |  |  |  |  |  |
| CN(C)CCc1c[nH]c2ccc(CS(=O)(=O)N3CCCC3)cc12 [ALMOTRIPTAN] | Compound NOT metabolized | Compound metabolized | Compound NOT metabolized | Compound NOT metabolized | Compound NOT metabolized | Compound NOT metabolized | Compound NOT metabolized | Compound NOT metabolized | Compound NOT metabolized | Compound NOT metabolized | Compound NOT metabolized | Compound NOT metabolized | Compound NOT metabolized | Compound NOT metabolized | Compound NOT metabolized |  |  |  |  |  |
| CN(C/C=C/C#CC(C)(C)C)Cc1cccc2ccccc12 [TERBINAFINE] |  | Compound metabolized | Compound NOT metabolized | Compound NOT metabolized | Compound NOT metabolized | Compound NOT metabolized | Compound NOT metabolized | Compound NOT metabolized | Compound metabolized | Compound NOT metabolized |  | Compound metabolized |  | Compound NOT metabolized | Compound NOT metabolized | Compound NOT metabolized | Compound NOT metabolized | Compound NOT metabolized | Compound NOT metabolized |  |
| CNCC[C@H](Oc1cccc2ccccc12)c1cccs1 [DULOXETINE] | Compound NOT metabolized | Compound metabolized | Compound NOT metabolized | Compound NOT metabolized | Compound NOT metabolized | Compound NOT metabolized | Compound NOT metabolized | Compound NOT metabolized | Compound NOT metabolized | Compound NOT metabolized | Compound NOT metabolized | Compound NOT metabolized | Compound NOT metabolized | Compound NOT metabolized | Compound NOT metabolized |  |  |  |  |  |
| CNNCc1ccc(C(=O)NC(C)C)cc1 [PROCARBAZINE] | Compound NOT metabolized | Compound NOT metabolized | Compound NOT metabolized | Compound NOT metabolized | Compound metabolized | Compound metabolized | Compound NOT metabolized |  | Compound NOT metabolized |  | Compound NOT metabolized | Compound NOT metabolized |  | Compound metabolized | Compound metabolized |  |  |  | Compound metabolized | Compound metabolized |
| O=C([O-])C[C@H](O)C[C@H](O)/C=C/c1c(C2CC2)nc2ccccc2c1-c1ccc(F)cc1.O=C([O-])C[C@H](O)C[C@H](O)/C=C/c1c(C2CC2)nc2ccccc2c1-c1ccc(F)cc1.[Ca+2] [PITAVASTATIN CALCIUM] | Compound NOT metabolized | Compound NOT metabolized | Compound metabolized | Compound NOT metabolized | Compound metabolized | Compound NOT metabolized | Compound NOT metabolized | Compound metabolized | Compound NOT metabolized | Compound metabolized | Compound metabolized | Compound NOT metabolized | Compound metabolized | Compound metabolized | Compound NOT metabolized |  |  |  |  |  |
| O=C1N=C([O-])NC1(c1ccccc1)c1ccccc1.[Na+] [PHENYTOIN SODIUM] | Compound NOT metabolized | Compound NOT metabolized | Compound NOT metabolized | Compound NOT metabolized | Compound NOT metabolized | Compound metabolized | Compound NOT metabolized | Compound metabolized | Compound metabolized | Compound metabolized | Compound NOT metabolized | Compound metabolized | Compound metabolized | Compound metabolized | Compound metabolized | Compound NOT metabolized |  | Compound NOT metabolized | Compound NOT metabolized |  |

From ChEMBL document CHEMBL5724914, “Linking interpersonal differences in gut microbiota composition and drug biotransformation activity” (2024)
